Seven compounds from ChEMBL document CHEMBL4177708, “N-Arylsulfonylsubstituted-1H indole derivatives as small molecule dual inhibitors of signal transducer and activator of transcription 3 (STAT3) and tubulin” (Bioorg Med Chem, 2018) can be followed below.

Active and inactive are the calls of the source. No cut-off for these calls is given here.

In data set [1] the target is Signal transducer and activator of transcription 3 (Homo sapiens) (UniProt P40763). Description: Inhibition of STAT3 phosphorylation at Tyr-705 residue in human MDA-MB-231 cells after 12 hrs by Western blot analysis. The format is cell-based.
The test system of data set [2] is A549. Description: […] of beta-tubulin polymerization in human A549 cells at 1 uM after 12 to 24 hrs by DAPI staining based confocal microscopic method. The data set is classed as cell-based.
Data set [3] deals with A549. Description: Inhibition of beta-tubulin polymerization in human A549 cells at 1 uM after 12 to 24 hrs by DAPI staining based confocal microscopic method. The format is cell-based.
The target in data set [4] is Signal transducer and activator of transcription 3 (Homo sapiens) (UniProt P40763). As to the kind of experiment: Inhibition of STAT3 phosphorylation at Tyr-705 residue in human MDA-MB-231 cells at 8 to 10 uM after 12 hrs by Western blot analysis. The data set is classed as cell-based. In general terms: Immunoblotting shows a protein as a band on a membrane.
Data set [5] in a line: Solubility of the compound in 0.1% DMSO. The data set is classed as physicochemical.
Data set [6] addresses Signal transducer and activator of transcription 3 (Homo sapiens) (UniProt P40763). As to the kind of experiment: Inhibition of IL-6-stimulated STAT3 phosphorylation at Tyr-705 residue in human MDA-MB-231 cells at 1 to 4 uM preincubated for 2 hrs followed by IL-6 stimulation measured after 30 mins by Western blot analysis. The format is cell-based.

Signal transducer and activator of transcription 3 (Homo sapiens), sequence (P40763 whole entry): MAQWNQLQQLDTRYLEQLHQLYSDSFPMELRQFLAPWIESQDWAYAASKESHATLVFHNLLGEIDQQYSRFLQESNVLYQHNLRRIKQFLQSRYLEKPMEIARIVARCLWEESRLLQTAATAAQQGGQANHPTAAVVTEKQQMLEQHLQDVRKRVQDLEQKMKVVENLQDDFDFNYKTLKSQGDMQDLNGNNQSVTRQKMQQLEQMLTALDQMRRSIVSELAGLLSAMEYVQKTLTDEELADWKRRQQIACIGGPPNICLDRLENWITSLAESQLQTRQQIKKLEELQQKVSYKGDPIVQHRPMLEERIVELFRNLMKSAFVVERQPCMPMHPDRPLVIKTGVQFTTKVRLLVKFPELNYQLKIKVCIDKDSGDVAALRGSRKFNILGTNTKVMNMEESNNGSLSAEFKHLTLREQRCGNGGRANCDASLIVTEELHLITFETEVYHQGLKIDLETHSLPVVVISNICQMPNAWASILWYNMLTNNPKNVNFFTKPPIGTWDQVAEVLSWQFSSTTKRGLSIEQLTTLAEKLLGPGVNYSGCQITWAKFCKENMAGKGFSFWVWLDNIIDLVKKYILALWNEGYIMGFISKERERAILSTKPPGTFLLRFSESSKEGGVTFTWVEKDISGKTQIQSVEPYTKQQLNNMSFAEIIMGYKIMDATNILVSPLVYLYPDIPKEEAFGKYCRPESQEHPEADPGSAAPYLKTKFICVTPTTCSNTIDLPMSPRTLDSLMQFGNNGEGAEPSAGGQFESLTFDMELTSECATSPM

For `COc1ccc(S(=O)(=O)n2ccc3cccc(Nc4ccc(C#N)c(F)c4)c32)cc1`, the inhibition entry in data set [1] is “Dose-dependent effect”.
Take `CC(=O)O[C@H]1C(=O)[C@@]2(C)[C@H]([C@H](OC(=O)c3ccccc3)[C@]3(O)C[C@H](OC(=O)[C@H](O)[C@@H](NC(=O)c4ccccc4)c4ccccc4)C(C)=C1C3(C)C)[C@]1(OC(C)=O)CO[C@@H]1C[C@@H]2O`: in the data set on A549 [2], the result was Active.
`COc1ccc(S(=O)(=O)n2ccc3cccc(-c4ccc(S(C)(=O)=O)cc4)c32)cc1`: the inhibition result in data set [1] is “Dose-dependent effect”.
`COc1cc2c(c(OC)c1OC)-c1ccc(OC)c(=O)cc1[C@@H](NC(C)=O)CC2`: the inhibition entry in the data set on A549 [3] is “Active”.
Turning to `O=C(C1=Cc2cc(Br)ccc2S1(=O)=O)N1CCCCC1`, the inhibition entry in data set [4] is “Active”.
Turning to `COc1ccc(S(=O)(=O)n2cc(Cl)c3cccc(-c4ccc(Cl)cc4)c32)cc1`, the solubility result in data set [5] is “Insoluble”.
On to `COc1ccc(S(=O)(=O)n2ccc3cccc(-c4ccc(C#N)c(F)c4)c32)cc1`, for which, in data set [1], the inhibition entry was “Dose-dependent effect”. In data set [6], the inhibition result was “Active”.
